Data set [1] can be described thus: Drug localization in lysosome of human MDA-MB-231 cells assessed as colocalization at 20 uM incubated for 3 hrs by lyso-tracker blue staining based confocal microscopy analysis. In kind it is ADME, subcellular. The conditions noted are these: mda-mb-231, 3 h.
A short description of data set [2]: Selectivity ratio of IC50 for human MDA-MB-231 cells assessed as reduction in cell viability measured after 48 hrs under dark condition to IC50 human MDA-MB-231 cells assessed as reduction in cell viability measured after 48 hrs under light condition. In kind it is functional.
Data set [3] has as its system MDA-MB-231. The data set can be described thus: Antiproliferative activity against human MDA-MB-231 cells assessed as reduction in cell viability measured after 48 hrs under dark condition in presence of chloroquine by MTT assay. In kind it is functional, cell-based. The conditions noted are these: MDA-MB-231, 48 h.
Data set [4] in a line: Drug uptake in human MDA-MB-231 cells at 20 uM measured after 6 hrs by confocal microscopy based analysis. In kind it is ADME, cell-based. The note with it: mda-mb-231, 6 h.
The test system of data set [5] is MDA-MB-231. Put plainly: Induction of autophagy in human MDA-MB-231 cells assessed as increase in green fluorescence at 20 uM under light irradiation by confocal microscopy based analysis. In kind it is functional, cell-based.
Data set [6] relates to MDA-MB-231. The data set can be described thus: Antiproliferative activity against human MDA-MB-231 cells assessed as reduction in cell viability measured after 48 hrs under light condition by MTT assay. In kind it is functional, cell-based. The note with it: MDA-MB-231, 48 h.
In data set [7] the test system is MDA-MB-231. The data set can be described thus: Induction of autophagy in human MDA-MB-231 cells assessed as increase in calcium ion release in cytoplasm by measuring blue fluorescence at 10 uM incubated for 3 hrs followed by dark incubation by Fura-2 dye based confocal microscopy based analysis. In kind it is functional, cell-based.
In data set [8] the test system is MDA-MB-231. Put plainly: Induction of ROS response in human MDA-MB-231 cells by measuring green fluorescence at 10 uM incubated for 3 hrs under light 24J/cm2 irradiation by H2DCFDA staining based confocal microscopy analysis. In kind it is functional, cell-based.
For data set [9], the system named is MDA-MB-231. The data set can be described thus: Induction of ROS response in human MDA-MB-231 cells by measuring green fluorescence at 10 uM incubated for 3 hrs dark condition by H2DCFDA staining based confocal microscopy analysis. In kind it is functional, cell-based.
A short description of data set [10]: Drug localization in lysosome of human MDA-MB-231 cells assessed as colocalization at 20 uM incubated for 3 hrs by MDH staining based confocal microscopy analysis. In kind it is ADME, subcellular. The conditions noted are these: mda-mb-231, 3 h.
For data set [11], the system named is MDA-MB-231. Put plainly: Antiproliferative activity against human MDA-MB-231 cells assessed as reduction in cell viability measured after 48 hrs under dark condition by MTT assay. In kind it is functional, cell-based. The note with it: MDA-MB-231, 48 h. In general terms: Tetrazolium assays rely on reduction of a dye to a coloured formazan, in cell work by metabolically active cells.

A short description of data set [12]: Selectivity ratio of IC50 for human MDA-MB-231 cells assessed as reduction in cell viability measured after 48 hrs under dark condition in presence of chloroquine to IC50 human MDA-MB-231 cells assessed as reduction in cell viability measured after 48 hrs under light condition in presence of chloroquine. In kind it is functional.
Data set [13] is described as follows: Drug uptake in human MDA-MB-231 cells at 20 uM measured after 24 hrs by confocal microscopy based analysis. The note with it: mda-mb-231, 24 h. In kind it is ADME, cell-based.
The subject of data set [14] is MDA-MB-231. The data set can be described thus: Antiproliferative activity against human MDA-MB-231 cells assessed as reduction in cell viability measured after 48 hrs under light condition in presence of chloroquine by MTT assay. In kind it is functional, cell-based. The conditions noted are these: MDA-MB-231, 48 h.

Structures are written as SMILES. The source made the active and inactive calls. The calls are words filed in the database; no cut-off is given here.

In the case of `CCCCn1c2ccccc2c2cc(/C=C/c3ccc4c(c3)c3cc(C5=C6C=CC=[N+]6[B-](F)(F)n6cccc65)ccc3n4CCCC)ccc21`, the Drug uptake entry in data set [1], in data set [4], in [10] and in [13] was “Active” in each case. For the same compound, the results for the “Ratio IC50” value in data set [2] and in [12] were over 2.9 and over 8.97, respectively. Further, the 50% inhibitory concentration (IC50) in data set [3] was over 50 µM; in [6], 17.1 µM; in [11], over 50 µM; in data set [14] it was 5.57 µM. Also, the outcome in data set [5], in data set [7], in [8] and in [9] was Active.

With `CCCCn1c2ccc(/C=C/c3ccc(N(c4ccccc4)c4ccccc4)cc3)cc2c2cc(C3=C4C=CC=[N+]4[B-](F)(F)n4cccc43)ccc21`, the “Ratio IC50” value in data set [2] is on record as 13.84; in data set [12], over 19.33. In addition, the IC50 in [3] was found to be 22.6 µM; in data set [6], 0.95 µM; in data set [11], 13.2 µM; in [14], 1.17 µM. The Drug uptake entry in data set [4] and in [13] was “Active” each time. The outcome in data set [7], in data set [8] and in [9] was Active.

With `CO[C@H]1C[C@@H]2CC[C@@H](C)[C@@](O)(O2)C(=O)C(=O)N2CCCC[C@H]2C(=O)O[C@H]([C@H](C)C[C@@H]2CC[C@@H](O)[C@H](OC)C2)CC(=O)[C@H](C)/C=C(\C)[C@@H](O)[C@@H](OC)C(=O)[C@H](C)C[C@H](C)/C=C/C=C/C=C/1C` [SIROLIMUS], the IC50 stood at 14.2 µM in data set [6] and 11.2 µM in [11].

As for `CCN(CC)CCCC(C)Nc1ccnc2cc(Cl)ccc12` (centres undefined) [CHLOROQUINE], the IC50 in data set [6] and in data set [11] was over 50 µM throughout.

Broadly, the IC50 is the point on the concentration scale where inhibition reaches its midpoint.

These data come from ChEMBL document CHEMBL6074703, “BODIPYS Based Fluorescent Markers To Monitor Autophagic Lysosomes and Lipid Droplets in TNBC” (ACS Med Chem Lett, 2024).
